ChEMBL document CHEMBL3774336, “Identification of spirooxindole and dibenzoxazepine motifs as potent mineralocorticoid receptor antagonists” (Bioorg Med Chem, 2016)

What was measured:
[1] = target: 5-hydroxytryptamine receptor 2B (Homo sapiens) (UniProt P41595); assay: Inhibition of serotonin 5H2B receptor (unknown origin) at 10 uM
[2] = target: Histamine H1 receptor (Homo sapiens) (UniProt P35367); assay: Inhibition of histamine H1 receptor (unknown origin) at 10 uM
[3] = target: hERG (KCNH2) (Homo sapiens, UniProt Q12809); assay: Inhibition of human ERG (unknown origin) at 10 uM
Sequence of hERG (KCNH2) (Q12809 whole entry): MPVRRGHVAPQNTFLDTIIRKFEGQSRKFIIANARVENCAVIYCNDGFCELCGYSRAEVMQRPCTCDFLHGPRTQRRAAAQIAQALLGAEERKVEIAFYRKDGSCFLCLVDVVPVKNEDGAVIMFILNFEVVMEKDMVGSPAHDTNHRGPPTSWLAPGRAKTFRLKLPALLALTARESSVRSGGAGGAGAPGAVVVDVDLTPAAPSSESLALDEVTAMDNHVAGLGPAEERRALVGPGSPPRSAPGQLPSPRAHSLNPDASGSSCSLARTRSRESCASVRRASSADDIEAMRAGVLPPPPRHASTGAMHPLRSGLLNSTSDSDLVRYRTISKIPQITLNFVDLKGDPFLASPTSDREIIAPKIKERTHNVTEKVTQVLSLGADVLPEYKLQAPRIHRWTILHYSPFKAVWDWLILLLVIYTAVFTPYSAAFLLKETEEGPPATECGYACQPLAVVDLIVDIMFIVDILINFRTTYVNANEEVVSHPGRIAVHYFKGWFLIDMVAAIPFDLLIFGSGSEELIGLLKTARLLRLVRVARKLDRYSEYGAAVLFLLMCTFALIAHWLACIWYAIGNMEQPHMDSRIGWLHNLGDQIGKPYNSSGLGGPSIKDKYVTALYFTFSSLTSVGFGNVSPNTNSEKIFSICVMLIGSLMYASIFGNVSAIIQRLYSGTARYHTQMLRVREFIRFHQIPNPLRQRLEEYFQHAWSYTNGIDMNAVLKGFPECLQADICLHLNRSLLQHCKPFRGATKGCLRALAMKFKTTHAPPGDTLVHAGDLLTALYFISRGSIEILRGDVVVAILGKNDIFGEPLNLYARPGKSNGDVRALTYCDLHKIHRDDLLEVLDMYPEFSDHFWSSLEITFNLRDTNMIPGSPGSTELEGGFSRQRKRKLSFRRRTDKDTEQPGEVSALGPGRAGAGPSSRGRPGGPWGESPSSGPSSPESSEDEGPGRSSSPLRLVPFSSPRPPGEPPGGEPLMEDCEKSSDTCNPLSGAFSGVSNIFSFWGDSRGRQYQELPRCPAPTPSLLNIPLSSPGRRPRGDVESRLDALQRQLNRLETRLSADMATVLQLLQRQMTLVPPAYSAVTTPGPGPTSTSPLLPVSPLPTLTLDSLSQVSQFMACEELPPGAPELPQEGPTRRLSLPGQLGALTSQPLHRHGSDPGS

[4] = target: T1, Alpha-2A adrenergic receptor (Homo sapiens) (UniProt P08913); assay: Inhibition of adrenergic alpha2A receptor (unknown origin) at 10 uM
T1 sequence (whole entry): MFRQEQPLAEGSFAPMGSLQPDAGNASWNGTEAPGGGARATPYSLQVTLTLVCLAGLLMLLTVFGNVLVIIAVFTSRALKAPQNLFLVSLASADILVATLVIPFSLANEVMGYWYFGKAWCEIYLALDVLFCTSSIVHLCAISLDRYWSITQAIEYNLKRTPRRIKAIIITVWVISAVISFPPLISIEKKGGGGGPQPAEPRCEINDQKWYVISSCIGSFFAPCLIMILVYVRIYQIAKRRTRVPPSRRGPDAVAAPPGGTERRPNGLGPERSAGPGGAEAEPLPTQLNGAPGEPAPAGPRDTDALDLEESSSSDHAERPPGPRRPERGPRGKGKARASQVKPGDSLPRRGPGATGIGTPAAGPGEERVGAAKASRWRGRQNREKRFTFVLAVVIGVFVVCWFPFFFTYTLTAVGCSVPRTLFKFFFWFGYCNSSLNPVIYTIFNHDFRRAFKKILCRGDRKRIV

[5] = target: T2, Androgen receptor (Rattus norvegicus) (UniProt P15207); assay: Inhibition of GST-tagged rat androgen receptor LBD domain expressed in insect cells at 10 uM by Gal4-based fluorescence polarization assay
T2 sequence (whole entry): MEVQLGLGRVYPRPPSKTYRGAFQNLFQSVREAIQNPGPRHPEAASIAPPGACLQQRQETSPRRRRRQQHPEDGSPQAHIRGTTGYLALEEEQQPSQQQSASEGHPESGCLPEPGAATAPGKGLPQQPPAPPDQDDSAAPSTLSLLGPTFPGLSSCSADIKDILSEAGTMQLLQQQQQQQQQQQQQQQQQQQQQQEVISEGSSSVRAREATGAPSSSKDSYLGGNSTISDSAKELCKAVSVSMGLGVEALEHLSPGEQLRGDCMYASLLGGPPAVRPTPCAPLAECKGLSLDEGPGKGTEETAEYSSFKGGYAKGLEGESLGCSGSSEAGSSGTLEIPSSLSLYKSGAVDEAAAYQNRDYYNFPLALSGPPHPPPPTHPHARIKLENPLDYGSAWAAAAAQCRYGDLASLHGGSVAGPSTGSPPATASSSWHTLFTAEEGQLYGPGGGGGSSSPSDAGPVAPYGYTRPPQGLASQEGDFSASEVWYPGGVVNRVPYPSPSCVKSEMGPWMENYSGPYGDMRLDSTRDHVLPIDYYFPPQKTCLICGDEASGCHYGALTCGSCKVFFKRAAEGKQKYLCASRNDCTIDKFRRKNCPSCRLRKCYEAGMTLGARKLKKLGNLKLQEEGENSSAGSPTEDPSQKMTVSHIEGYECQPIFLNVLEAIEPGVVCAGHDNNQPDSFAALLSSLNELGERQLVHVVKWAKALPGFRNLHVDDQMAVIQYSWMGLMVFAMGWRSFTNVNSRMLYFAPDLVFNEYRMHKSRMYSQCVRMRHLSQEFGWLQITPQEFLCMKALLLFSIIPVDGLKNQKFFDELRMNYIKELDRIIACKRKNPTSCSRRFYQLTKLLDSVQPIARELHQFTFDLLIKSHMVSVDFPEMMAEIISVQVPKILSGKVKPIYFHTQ

[6] = target: T3, Glucocorticoid receptor (Homo sapiens) (UniProt P04150); assay: Inhibition of GST-tagged human glucocorticoid receptor LBD domain expressed in insect cells at 10 uM by Gal4-based fluorescence polarization assay
T3 sequence (whole entry): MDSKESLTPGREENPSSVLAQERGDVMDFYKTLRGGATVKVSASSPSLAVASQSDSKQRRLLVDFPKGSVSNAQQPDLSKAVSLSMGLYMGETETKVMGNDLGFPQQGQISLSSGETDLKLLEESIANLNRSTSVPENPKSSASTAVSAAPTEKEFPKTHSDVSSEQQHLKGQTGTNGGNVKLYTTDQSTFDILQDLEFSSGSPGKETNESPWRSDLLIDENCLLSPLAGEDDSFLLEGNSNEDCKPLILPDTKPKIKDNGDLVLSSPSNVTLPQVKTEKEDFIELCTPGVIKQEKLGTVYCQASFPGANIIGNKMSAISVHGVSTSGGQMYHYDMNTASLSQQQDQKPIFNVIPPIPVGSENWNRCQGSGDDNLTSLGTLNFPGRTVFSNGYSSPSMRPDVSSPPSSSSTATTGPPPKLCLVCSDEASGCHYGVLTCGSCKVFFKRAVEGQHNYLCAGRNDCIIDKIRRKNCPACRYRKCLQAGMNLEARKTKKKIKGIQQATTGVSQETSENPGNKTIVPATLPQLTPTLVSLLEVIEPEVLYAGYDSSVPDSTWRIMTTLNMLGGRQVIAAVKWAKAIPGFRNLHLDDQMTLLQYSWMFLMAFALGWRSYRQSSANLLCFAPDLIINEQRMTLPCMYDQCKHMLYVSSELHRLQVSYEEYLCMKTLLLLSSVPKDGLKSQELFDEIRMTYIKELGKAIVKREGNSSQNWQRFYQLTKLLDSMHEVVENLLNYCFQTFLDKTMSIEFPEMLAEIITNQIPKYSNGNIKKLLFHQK

[7] = target: T4, Mineralocorticoid receptor (Homo sapiens, UniProt P08235, C808S)
T4 sequence (P08235 whole entry C808S): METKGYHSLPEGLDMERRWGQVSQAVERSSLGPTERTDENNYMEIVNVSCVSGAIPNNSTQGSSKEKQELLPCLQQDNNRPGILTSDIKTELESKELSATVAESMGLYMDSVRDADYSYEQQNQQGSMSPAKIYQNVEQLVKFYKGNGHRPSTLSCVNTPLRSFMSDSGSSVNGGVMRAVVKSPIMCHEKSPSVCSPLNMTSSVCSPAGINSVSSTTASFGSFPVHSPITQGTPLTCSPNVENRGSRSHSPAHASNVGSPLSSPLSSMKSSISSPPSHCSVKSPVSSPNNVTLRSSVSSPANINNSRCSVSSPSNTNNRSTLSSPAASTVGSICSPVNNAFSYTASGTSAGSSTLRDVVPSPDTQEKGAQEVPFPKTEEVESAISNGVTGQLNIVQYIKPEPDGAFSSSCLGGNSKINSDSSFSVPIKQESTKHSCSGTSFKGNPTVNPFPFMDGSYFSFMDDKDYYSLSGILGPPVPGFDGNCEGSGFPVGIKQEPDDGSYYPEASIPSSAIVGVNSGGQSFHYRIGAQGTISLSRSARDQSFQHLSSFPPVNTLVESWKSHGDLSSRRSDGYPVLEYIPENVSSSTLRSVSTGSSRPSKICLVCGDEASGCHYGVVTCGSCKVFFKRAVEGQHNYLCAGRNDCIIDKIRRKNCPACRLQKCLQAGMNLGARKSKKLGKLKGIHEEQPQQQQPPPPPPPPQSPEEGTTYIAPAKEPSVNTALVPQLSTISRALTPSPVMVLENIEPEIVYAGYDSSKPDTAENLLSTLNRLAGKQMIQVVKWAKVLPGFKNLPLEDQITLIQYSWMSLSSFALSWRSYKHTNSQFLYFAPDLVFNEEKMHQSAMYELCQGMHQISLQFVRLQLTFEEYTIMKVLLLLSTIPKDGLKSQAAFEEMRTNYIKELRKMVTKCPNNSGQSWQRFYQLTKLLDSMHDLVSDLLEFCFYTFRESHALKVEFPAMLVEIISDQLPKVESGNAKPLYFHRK

[8] = target: T4, Mineralocorticoid receptor; remark: listed apart in the source

Sequence of Histamine H1 receptor (Homo sapiens) (P35367 whole entry): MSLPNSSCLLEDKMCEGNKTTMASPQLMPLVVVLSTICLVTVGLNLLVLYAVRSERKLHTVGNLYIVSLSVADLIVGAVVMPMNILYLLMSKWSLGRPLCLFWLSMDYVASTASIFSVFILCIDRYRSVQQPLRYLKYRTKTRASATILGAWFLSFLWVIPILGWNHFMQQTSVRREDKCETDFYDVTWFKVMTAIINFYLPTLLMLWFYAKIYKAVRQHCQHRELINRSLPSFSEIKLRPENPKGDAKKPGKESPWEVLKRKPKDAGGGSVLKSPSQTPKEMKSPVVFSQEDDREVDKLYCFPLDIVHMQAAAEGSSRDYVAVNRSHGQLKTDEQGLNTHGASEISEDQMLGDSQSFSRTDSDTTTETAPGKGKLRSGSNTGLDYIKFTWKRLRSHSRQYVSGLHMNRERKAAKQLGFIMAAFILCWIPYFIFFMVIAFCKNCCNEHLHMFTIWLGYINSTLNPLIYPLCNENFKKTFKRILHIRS
Sequence of 5-hydroxytryptamine receptor 2B (Homo sapiens) (P41595 whole entry): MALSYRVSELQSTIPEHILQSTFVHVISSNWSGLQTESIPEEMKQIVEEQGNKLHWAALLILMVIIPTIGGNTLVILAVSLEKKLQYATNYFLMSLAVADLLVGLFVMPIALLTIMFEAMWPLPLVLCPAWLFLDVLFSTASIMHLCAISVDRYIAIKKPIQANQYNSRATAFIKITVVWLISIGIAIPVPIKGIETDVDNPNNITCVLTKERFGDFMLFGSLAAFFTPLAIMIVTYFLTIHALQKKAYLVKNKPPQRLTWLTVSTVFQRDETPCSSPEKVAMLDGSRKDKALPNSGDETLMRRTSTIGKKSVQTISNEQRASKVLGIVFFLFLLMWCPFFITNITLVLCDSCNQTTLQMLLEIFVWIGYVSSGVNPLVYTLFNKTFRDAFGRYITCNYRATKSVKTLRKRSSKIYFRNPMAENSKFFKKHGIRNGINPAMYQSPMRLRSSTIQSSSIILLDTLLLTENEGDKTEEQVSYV

Structure (SMILES)	inhibition [1] [%]	inhibition [2] [%]	inhibition at 10 µM [3] [%]	inhibition [4] [%]	inhibition [5] [%]	inhibition [6] [%]	IC50 [7] [nM]	Ki [8] [nM]
CN1CCC2(CC1)C(=O)Nc1cc(/C=C3\c4ccccc4COc4cc(F)ccc43)ccc12	87	97	78	100	< 40	< 40	19	6
O=C1COc2ccc(/C=C3\c4ccccc4COc4cc(F)ccc43)cc2N1	67	26	26	59	77	92	2	2
